# Results reported in patent US7964613B2 (Asahi Kasei Pharma Corporation, priority 2007, dated 2011).
# What was measured:
# TNF-α production = assay: Inhibitory effect on TNF-α production in mice (LPS); assay type: in vivo, BALB/c mice; conditions: Mus musculus, 1.5 h; oral administration of 30 mg/kg, LPS 5 μg i.p. 60 minutes later, plasma after 90 minutes; read-out: TNF-α production suppressing action
# Procedure: BALB/c mice (Japan CRJ, famale) were used as experimental animals. Each test compound was dissolved in distilled water at a concentration suitable for the examination. The weight of each mouse was measured, a test compound solution was orally administered in a volume corresponding to 10 ml/kg, and only distilled water was administered to the control group. Each group consisted of five to seven animals. LPS was dissolved in physiological saline, and intraperitoneally administered to each mouse in an amount of 5 μg. The test compound was administered first, and LPS (lipopolysaccharide, Sigma) was administered 60 minutes later. After 90 minutes, blood was collected from the abdominal large vein in the presence of heparin, and plasma was obtained by centrifugation. TNF-α content in the plasma was measured by using the ELISA method.
# human ROCK1 = target: T1, human ROCK1 (Homo sapiens, UniProt Q13464); assay: Measurement of Rho kinase inhibitory activity (ELISA of MBS phosphorylation); assay type: biochemical; conditions: human ROCK1, MBS substrate, 100 μM ATP, 30° C. for 10 minutes
# T1 construct: His tag (N); host or cells: insect cells (Sf9)
# Procedure: In this test, human ROCK1 was used as Rho kinase, MBS (myosin binding subunit, subunit constituting myosin phosphatase) was used as the substrate of Rho kinase, and an anti-phosphorylated MBS antibody was used for detection of phosphorylation. The activity for inhibiting Rho kinase was determined by measuring phosphorylation of MBS by the Rho kinase by ELISA in the presence of an appropriately diluted test compound. As the Rho kinase used, a recombinant protein (N-terminal His-tagged recombinant human ROCK1 residues (1Met-[…])) was used, which was produced in insect cells (Sf9) using a sequence (1-727), of which activity was confirmed in the paper of Ishizaki et al. (Ishizaki, T. et al., FEBS Letters, 404, pp 118-124, 1997), based on the sequence of human ROCK1 (p 160 ROCK) described in the report of Ishizaki et al. (Ishizaki, T. et al., EMBO J., 15, pp 1885-1893, 1996). Further, as the MBS protein and anti-phosphorylated MBS antibody, those prepared according to the method described in the paper of Ito et al. (Ito, K et al., J. Physiol., 546, pp 823-836, 2003) were used.
# A solution of MBS (Asahi Kasei Pharma, lot No, 040814n7-10) diluted with PBS to an appropriate concentration was added to an ELISA plate (Maxisorp, Nunc), and left, stand overnight at 4° C., and then the wells were washed twice with a washing solution (WB, washing buffer, 0.1% Tween 20/PBS). To the wells were added 1% bovine serum albumin (Sigma)/PBS, and left for 1 to 3 hours, and then the wells were washed 5 times with WB to prepare a substrate-immobilized plate. Onto this plate, a reaction mixture (5 mM MgSO4/0.1 M NaCl/20 mM HEPES (pH 7.5)/100 μM ATP/5 mM DTT), a test compound, and appropriately diluted human ROCK1 (Asahi Kasei Pharma, lot No, 030126.120-22) were added, and then reacted at 30° C. for 10 minutes. Then, 0.2 M EDTA (pH 7.5) was added to terminate the reaction, and the wells were washed 5 times with WB. A rabbit anti-phosphorylated MBS antibody solution (Asahi Kasei Pharma, lot No, 122676431) diluted 10,000 times with WB containing 1% bovine serum albumin was added to the wells, and after the reaction for 1 hour, the wells were washed 5 times with WB. Goat anti-rabbit IgG-HRP (Zymed) diluted 1,000 times with WB containing 1% bovine serum albumin was added to the wells as the secondary detection antibody and the mixture was reacted for 1 hour, and then the wells were washed 5 times with WB. An OPD (o-phenylenediamine) solution (1 mg/ml OPD, Sigma), 5.1 g/l of citric acid monohydrate, and 18.4 g/l of Na2HPO4.12H2O were added to the wells to develop color, […] was added 5 minutes later to terminate the color development, and absorbance was measured at 490 nm.
# The inhibition ratio was calculated as follows. Inhibition ratio(%)=[…]
# Further, the inhibition ratio was calculated with changing the concentration of the test compound, and a compound concentration providing an inhibition ratio of 50% was obtained as IC50.
# [1] = test system: rabbit normal intraocular pressure; assay: Intraocular pressure reducing action; assay type: in vivo, Japanese white rabbit; conditions: Oryctolagus cuniculus, topical; 3 mM aqueous solution, 50 μl to the left eye; max IOP reduction (2, 4, 6 hours) / value immediately before administration; read-out: intraocular pressure reducing degree
# Method in brief: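 Japanese white rabbits (~2 kg) under topical anaesthesia received 50 μl of a 3 mM aqueous test solution in the left eye, right eye untreated. IOP read by tonometer before and at 2, 4, 6 h; maximal left–right difference divided by pre-dose IOP ×100 gives % reduction.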
# T1 sequence (Q13464 1-727): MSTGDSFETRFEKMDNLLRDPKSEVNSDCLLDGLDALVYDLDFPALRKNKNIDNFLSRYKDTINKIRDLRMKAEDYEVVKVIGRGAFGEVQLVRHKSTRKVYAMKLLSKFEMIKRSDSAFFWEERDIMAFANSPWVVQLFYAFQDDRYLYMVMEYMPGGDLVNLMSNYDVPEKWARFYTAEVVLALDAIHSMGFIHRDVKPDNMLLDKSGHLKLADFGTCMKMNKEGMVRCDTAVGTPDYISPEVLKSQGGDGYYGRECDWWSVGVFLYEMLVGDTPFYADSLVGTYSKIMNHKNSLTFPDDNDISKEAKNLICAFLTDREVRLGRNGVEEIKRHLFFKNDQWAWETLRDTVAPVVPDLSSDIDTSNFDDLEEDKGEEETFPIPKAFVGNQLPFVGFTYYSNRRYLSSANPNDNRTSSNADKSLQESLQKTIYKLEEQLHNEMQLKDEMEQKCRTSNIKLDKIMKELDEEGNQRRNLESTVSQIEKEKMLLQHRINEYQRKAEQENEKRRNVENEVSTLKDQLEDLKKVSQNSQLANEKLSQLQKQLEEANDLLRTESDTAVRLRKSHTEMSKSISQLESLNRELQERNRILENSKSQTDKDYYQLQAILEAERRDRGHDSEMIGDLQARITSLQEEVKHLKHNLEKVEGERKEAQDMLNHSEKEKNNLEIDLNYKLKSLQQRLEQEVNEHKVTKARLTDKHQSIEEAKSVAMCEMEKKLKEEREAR
SMILES,inhibition in vivo at 30 mg/kg (TNF-α production) [%],IC50 (human ROCK1) [µM],inhibition in vivo at 3000 µM [1] [%]
Cc1ccc(CN[C@H]2CCN(S(=O)(=O)c3cccc4cncc(Br)c34)C2)cc1 [Example 1-12],≥ 30,< 1,–
"N[C@H]1CCCN(S(=O)(=O)c2cccc3cncc(Br)c23)C1 [Example 2-1, (S)-3-Amino-1-(4-bromo-5-isoquinolinesulfonyl)piperidine]",≥ 50,–,–
"CN[C@H]1CCN(S(=O)(=O)c2cccc3cncc(F)c23)C1 [Example 18-3, (S)-1-(4-Fluoro-5-isoquinolinesulfonyl)-3-(methylamino)pyrrolidine]",≥ 50,–,≥ 20
"CN[C@@H]1CCN(S(=O)(=O)c2cccc3c(O)ncc(Cl)c23)C1 [Example 36-2, (R)-1-(1-Hydroxy-4-chloro-5-isoquinolinesulfonyl)-3-(methylamino)pyrrolidine]",–,1 to 3,10 to 20
"CN[C@H]1CCN(S(=O)(=O)c2cccc3c(O)ncc(F)c23)C1 [Example 37-1, (S)-1-(1-Hydroxy-4-fluoro-5-isoquinolinesulfonyl)-3-(methylamino)pyrrolidine]",≥ 30,–,–
"O=S(=O)(c1cccc2c(O)ncc(Br)c12)N1CC[C@H](NCc2ccco2)C1 [Example 38-1, (S)-1-(1-Hydroxy-4-bromo-5-isoquinolinesulfonyl)-3-(2-furylmethylamino)pyrrolidine]",–,1 to 3,5 to 10
"CC(N)C1CCN(S(=O)(=O)c2cccc3cncc(Cl)c23)C1 (stereo not drawn) [Example 45, 3-(1-Aminoethyl)-1-(4-chloro-5-isoquinolinesulfonyl)pyrrolidine]",–,1 to 3,5 to 10
"CNCC(=O)N[C@H]1CCN(S(=O)(=O)c2cccc3cncc(Cl)c23)C1 [Example 51-1, (S)-3-(2-Methylaminoacetyl)amino-1-(4-chloro-5-isoquinolinesulfonyl)pyrrolidine]",–,1 to 3,10 to 20
CC(N)C1CCN(S(=O)(=O)c2cccc3cncc(Cl)c23)CC1 (stereo not drawn) [Example 53],–,< 1,10 to 20
"NCC(=O)N[C@H]1CCN(S(=O)(=O)c2cccc3cncc(Cl)c23)C1 [Example 58-1, (S)-3-(2-Aminoacetyl)amino-1-(4-chloro-5-isoquinolinesulfonyl)pyrrolidine]",–,1 to 3,≥ 20
"NCC1CN(S(=O)(=O)c2cccc3cncc(Cl)c23)C1 [Example 60, 3-(Aminomethyl)-1-(4-chloro-5-isoquinolinesulfonyl)azetidine]",–,1 to 3,5 to 10
"NCCCN[C@H]1CCN(S(=O)(=O)c2cccc3cncc(Cl)c23)C1 [Example 62-1, (S)-3-(3-Aminopropyl)amino-1-(4-chloro-5-isoquinolinesulfonyl)pyrrolidine]",–,1 to 3,10 to 20
"O=S(=O)(c1cccc2c(O)ncc(Cl)c12)N1CC[C@H](NC2CCOCC2)C1 [Example 64-1, (S)-3-(4-Tetrahydropyranyl)amino-1-(1-hydroxy-4-chloro-5-isoquinolinesulfonyl)pyrrolidine]",–,< 1,10 to 20
"Cc1cncc2cccc(S(=O)(=O)N3CC[C@H](NCCCNC(=O)Nc4ccccc4)C3)c12 [Example 65-1, (S)—N-[3-[1-(4-Methyl-5-isoquinolinesulfonyl)pyrrolidin-3-yl]aminopropyl],N′-phenylurea]",–,< 1,10 to 20
"COCC(=O)N[C@H]1CCN(S(=O)(=O)c2cccc3cncc(Br)c23)C1 [Example 71, (S)-3-(2-Methoxyacetyl)amino-1-(4-bromo-5-isoquinolinesulfonyl)pyrrolidine]",≥ 30,–,≥ 20
"O=C(CCN1CCCCC1)N[C@H]1CCN(S(=O)(=O)c2cccc3cncc(Cl)c23)C1 [Example 80, (S)-3-[3-(Piperidin-1-yl)propionyl]amino-1-(4-chloro-5-isoquinolinesulfonyl)pyrrolidine]",–,1 to 3,5 to 10
"O=C(CCN1CCNCC1)N[C@H]1CCN(S(=O)(=O)c2cccc3cncc(Cl)c23)C1 [Example 83, (S)-3-[3-(piperazin-1-yl)propionyl]amino-1-(4-chloro-5-isoquinolinesulfonyl)pyrrolidine]",–,1 to 3,10 to 20
"O=C(Cn1cnnn1)N[C@H]1CCN(S(=O)(=O)c2cccc3cncc(Cl)c23)C1 [Example 85, (S)-3-[2-(1H-Tetrazol-1-yl)acetyl]amino-1-(4-chloro-5-isoquinolinesulfonyl)pyrrolidine]",–,1 to 3,10 to 20
"NOCC(=O)N[C@H]1CCN(S(=O)(=O)c2cccc3cncc(Cl)c23)C1 [Example 101, (S)-3-[2-(Aminooxy)acetyl]amino-1-(4-chloro-5-isoquinolinesulfonyl)pyrrolidine]",–,< 1,≥ 20
"O=C(N[C@H]1CCN(S(=O)(=O)c2cccc3cncc(Cl)c23)C1)C1CNCCO1 (stereo partly drawn) [Example 102, N—[(S)-1-(4-chloro-5-isoquinolinesulfonyl)pyrrolidin-3-yl]morpholin-2-carboxamide]",–,< 1,≥ 20
"O=C(COc1ccccc1)N[C@H]1CCN(S(=O)(=O)c2cccc3cncc(Cl)c23)C1 [Example 103, (S)-3-(2-Phenoxyacetyl)amino-1-(4-chloro-5-isoquinolinesulfonyl)pyrrolidine]",–,1 to 3,≥ 20
"O=C(COc1cccnc1)N[C@H]1CCN(S(=O)(=O)c2cccc3cncc(Cl)c23)C1 [Example 104, (S)-3-[2-(3-Pyridyloxy)acetyl]amino-1-(4-chloro-5-isoquinolinesulfonyl)pyrrolidine]",–,1 to 3,≥ 20
"O=C(N[C@H]1CCN(S(=O)(=O)c2cccc3cncc(Cl)c23)C1)C1COCCO1 (stereo partly drawn) [Example 109, N—[(S)-1-(4-Chloro-5-isoquinolinesulfonyl)pyrrolidin-3-yl]-1,4-dioxane-2-carboxamide]",–,1 to 3,≥ 20
"O=C(COC1CCOCC1)N[C@H]1CCN(S(=O)(=O)c2cccc3cncc(Cl)c23)C1 [Example 110, (S)-3-[[2-(Tetrahydro-2H-pyran-4-yloxy)]acetyl]amino-1-(4-chloro-5-isoquinolinesulfonyl)pyrrolidine]",–,1 to 3,≥ 20
"O=C(CN1CCC1)N[C@H]1CCN(S(=O)(=O)c2cccc3cncc(Cl)c23)C1 [Example 114, (S)-3-[2-(Azetidin-1-yl)acetyl]amino-1-(4-chloro-5-isoquinolinesulfonyl)pyrrolidine]",–,1 to 3,5 to 10
